Results as given in the supplement of paper PMC4862054.

test system: DU-4475; experiment: drug sensitivity score (DSS), CellTiter-Blue viability (DSS (AUC-based score)); higher = stronger viability inhibition; extreme values may be limits of the assay; conditions: incubation time: 72 h
Description: (§1)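 DSRT with the CellTiter-Blue (resazurin reduction) viability readout, fluorescence 560/590 nm, 72 h incubation. Plates were normalised to DMSO and benzethonium chloride controls. DSS is computed from the area under the fitted dose-response curve (5 or 9 concentrations).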

| Compound | drug sensitivity score |
| --- | --- |
| CCc1cncnc1N1CCN(Cc2nc3ccc(C(F)(F)F)cc3[nH]2)CC1 | 0 |
| Oc1ncc(N(CCCl)CCCl)c(O)n1 [Uracil mustard] | 0 |
| COc1cc2nccc(Oc3ccc(NC(=O)Nc4cc(C)on4)c(Cl)c3)c2cc1OC [Tivozanib] | 0 |
| O=C(Cc1ccc(-c2ccc(OCCN3CCOCC3)cc2)cn1)NCc1ccccc1 [KX2-391] | 25.9 |
| CC1=C(/C=C/C(C)=C/C=C/C(C)=C/C(=O)O)C(C)(C)CCC1 [Tretinoin] | 0 |
| Nc1ccccc1NC(=O)c1ccc(CNC(=O)OCc2cccnc2)cc1 [Entinostat] | 2.81 |
| C=CC(=O)Nc1cc2c(Nc3ccc(F)c(Cl)c3)ncnc2cc1OCCCN1CCOCC1 [Canertinib] | 2.6 |
| CCCCC(=O)OCC(=O)[C@]1(O)Cc2c(O)c3c(c(O)c2[C@@H](O[C@H]2C[C@H](NC(=O)C(F)(F)F)[C@H](O)[C@H](C)O2)C1)C(=O)c1c(OC)cccc1C3=O [Valrubicin] | 25 |

test system: HCC1599; experiment: as above; conditions: incubation time: 72 h
Description: as §1

| Compound | drug sensitivity score |
| --- | --- |
| CCc1cncnc1N1CCN(Cc2nc3ccc(C(F)(F)F)cc3[nH]2)CC1 | 0 |
| Oc1ncc(N(CCCl)CCCl)c(O)n1 [Uracil mustard] | 0 |
| COc1cc2nccc(Oc3ccc(NC(=O)Nc4cc(C)on4)c(Cl)c3)c2cc1OC [Tivozanib] | 0.494 |
| O=C(Cc1ccc(-c2ccc(OCCN3CCOCC3)cc2)cn1)NCc1ccccc1 [KX2-391] | 7.95 |
| CC1=C(/C=C/C(C)=C/C=C/C(C)=C/C(=O)O)C(C)(C)CCC1 [Tretinoin] | 3.35 |
| Nc1ccccc1NC(=O)c1ccc(CNC(=O)OCc2cccnc2)cc1 [Entinostat] | 4.98 |
| C=CC(=O)Nc1cc2c(Nc3ccc(F)c(Cl)c3)ncnc2cc1OCCCN1CCOCC1 [Canertinib] | 1.14 |
| CCCCC(=O)OCC(=O)[C@]1(O)Cc2c(O)c3c(c(O)c2[C@@H](O[C@H]2C[C@H](NC(=O)C(F)(F)F)[C@H](O)[C@H](C)O2)C1)C(=O)c1c(OC)cccc1C3=O [Valrubicin] | 6.82 |

test system: BT-549; experiment: as above; conditions: incubation time: 72 h
Description: as §1

| Compound | drug sensitivity score |
| --- | --- |
| CCc1cncnc1N1CCN(Cc2nc3ccc(C(F)(F)F)cc3[nH]2)CC1 | 0 |
| Oc1ncc(N(CCCl)CCCl)c(O)n1 [Uracil mustard] | 0 |
| COc1cc2nccc(Oc3ccc(NC(=O)Nc4cc(C)on4)c(Cl)c3)c2cc1OC [Tivozanib] | 2.11 |
| O=C(Cc1ccc(-c2ccc(OCCN3CCOCC3)cc2)cn1)NCc1ccccc1 [KX2-391] | 24.1 |
| CC1=C(/C=C/C(C)=C/C=C/C(C)=C/C(=O)O)C(C)(C)CCC1 [Tretinoin] | 0 |
| Nc1ccccc1NC(=O)c1ccc(CNC(=O)OCc2cccnc2)cc1 [Entinostat] | 0 |
| C=CC(=O)Nc1cc2c(Nc3ccc(F)c(Cl)c3)ncnc2cc1OCCCN1CCOCC1 [Canertinib] | 6.86 |
| CCCCC(=O)OCC(=O)[C@]1(O)Cc2c(O)c3c(c(O)c2[C@@H](O[C@H]2C[C@H](NC(=O)C(F)(F)F)[C@H](O)[C@H](C)O2)C1)C(=O)c1c(OC)cccc1C3=O [Valrubicin] | 7.75 |

test system: HCC1937; experiment: drug sensitivity score (DSS), CellTiter-Glo (DSS (AUC-based score)); higher = stronger drug effect (viability inhibition or cytotoxicity); extreme values may be limits of the assay; conditions: incubation time: 72 h
Summary of the method: (§2)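 For 72 h, breast cancer cell lines seeded at 20 µl suspension per well in 384-well plates were incubated with compound at 5 concentrations in 10-fold steps spanning a 10,000-fold range that differed by compound. The first reading was CellTox Green fluorescence at 485/520 nm, and the second was CellTiter-Glo luminescence after 10 min at room temperature. Both were normalised per plate to 0.1 % DMSO and a positive kill control, and the drug sensitivity score was obtained from the area under the fitted dose-response curve.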

| Compound | drug sensitivity score |
| --- | --- |
| CCc1cncnc1N1CCN(Cc2nc3ccc(C(F)(F)F)cc3[nH]2)CC1 | 0 |
| Oc1ncc(N(CCCl)CCCl)c(O)n1 [Uracil mustard] | 0 |
| COc1cc2nccc(Oc3ccc(NC(=O)Nc4cc(C)on4)c(Cl)c3)c2cc1OC [Tivozanib] | 1.42 |
| O=C(Cc1ccc(-c2ccc(OCCN3CCOCC3)cc2)cn1)NCc1ccccc1 [KX2-391] | 8.24 |
| CC1=C(/C=C/C(C)=C/C=C/C(C)=C/C(=O)O)C(C)(C)CCC1 [Tretinoin] | 0 |
| Nc1ccccc1NC(=O)c1ccc(CNC(=O)OCc2cccnc2)cc1 [Entinostat] | 0 |
| C=CC(=O)Nc1cc2c(Nc3ccc(F)c(Cl)c3)ncnc2cc1OCCCN1CCOCC1 [Canertinib] | 5.34 |
| CCCCC(=O)OCC(=O)[C@]1(O)Cc2c(O)c3c(c(O)c2[C@@H](O[C@H]2C[C@H](NC(=O)C(F)(F)F)[C@H](O)[C@H](C)O2)C1)C(=O)c1c(OC)cccc1C3=O [Valrubicin] | 4.28 |

test system: HDQ-P1; experiment: as above; conditions: incubation time: 72 h
Summary of the method: as §2

| Compound | drug sensitivity score |
| --- | --- |
| CCc1cncnc1N1CCN(Cc2nc3ccc(C(F)(F)F)cc3[nH]2)CC1 | 0 |
| Oc1ncc(N(CCCl)CCCl)c(O)n1 [Uracil mustard] | 0 |
| COc1cc2nccc(Oc3ccc(NC(=O)Nc4cc(C)on4)c(Cl)c3)c2cc1OC [Tivozanib] | 1.67 |
| O=C(Cc1ccc(-c2ccc(OCCN3CCOCC3)cc2)cn1)NCc1ccccc1 [KX2-391] | 8.26 |
| CC1=C(/C=C/C(C)=C/C=C/C(C)=C/C(=O)O)C(C)(C)CCC1 [Tretinoin] | 0 |
| Nc1ccccc1NC(=O)c1ccc(CNC(=O)OCc2cccnc2)cc1 [Entinostat] | 2.05 |
| C=CC(=O)Nc1cc2c(Nc3ccc(F)c(Cl)c3)ncnc2cc1OCCCN1CCOCC1 [Canertinib] | 11.8 |
| CCCCC(=O)OCC(=O)[C@]1(O)Cc2c(O)c3c(c(O)c2[C@@H](O[C@H]2C[C@H](NC(=O)C(F)(F)F)[C@H](O)[C@H](C)O2)C1)C(=O)c1c(OC)cccc1C3=O [Valrubicin] | 5.59 |

test system: MCF-10A; experiment: as above; conditions: incubation time: 72 h
Summary of the method: as §2

| Compound | drug sensitivity score |
| --- | --- |
| CCc1cncnc1N1CCN(Cc2nc3ccc(C(F)(F)F)cc3[nH]2)CC1 | 0 |
| Oc1ncc(N(CCCl)CCCl)c(O)n1 [Uracil mustard] | 0 |
| COc1cc2nccc(Oc3ccc(NC(=O)Nc4cc(C)on4)c(Cl)c3)c2cc1OC [Tivozanib] | 1.39 |
| O=C(Cc1ccc(-c2ccc(OCCN3CCOCC3)cc2)cn1)NCc1ccccc1 [KX2-391] | 8.52 |
| CC1=C(/C=C/C(C)=C/C=C/C(C)=C/C(=O)O)C(C)(C)CCC1 [Tretinoin] | 4.05 |
| Nc1ccccc1NC(=O)c1ccc(CNC(=O)OCc2cccnc2)cc1 [Entinostat] | 0 |
| C=CC(=O)Nc1cc2c(Nc3ccc(F)c(Cl)c3)ncnc2cc1OCCCN1CCOCC1 [Canertinib] | 22 |
| CCCCC(=O)OCC(=O)[C@]1(O)Cc2c(O)c3c(c(O)c2[C@@H](O[C@H]2C[C@H](NC(=O)C(F)(F)F)[C@H](O)[C@H](C)O2)C1)C(=O)c1c(OC)cccc1C3=O [Valrubicin] | 8.72 |

test system: MFM-223; experiment: as above; conditions: incubation time: 72 h
Summary of the method: as §2

| Compound | drug sensitivity score |
| --- | --- |
| CCc1cncnc1N1CCN(Cc2nc3ccc(C(F)(F)F)cc3[nH]2)CC1 | 0 |
| Oc1ncc(N(CCCl)CCCl)c(O)n1 [Uracil mustard] | 0 |
| COc1cc2nccc(Oc3ccc(NC(=O)Nc4cc(C)on4)c(Cl)c3)c2cc1OC [Tivozanib] | 7.56 |
| O=C(Cc1ccc(-c2ccc(OCCN3CCOCC3)cc2)cn1)NCc1ccccc1 [KX2-391] | 15.6 |
